“Also recorded” adds a separate entry of the source.
How the values were obtained:
Assay type in all cases: cell-based, human
[1] = system: PDE1 activity in RPMI 8392 cells; assay: CaM-stimulated PDE (PDE1) activity in cells after ODN treatment; details: for PDE1 (CaM-stimulated PDE) activity: 3 days
Description: Cells were grown to a density of about 10^6 /ml, collected by centrifugation (1200×g, 10 min), resuspended in I ml of homogenization buffer containing 40 mM Tris/HCl (pH 7.5), 1 mM EDTA, 1 mM DTT, 35 μg/ml phenylmethylsulfonyl fluoride, 15 mM benzamidine, 1 μg/ml leupeptin, 1 μg/ml antipain, 1 μg/ml pepstatin, and 1 μg/ml aprotinin, homogenized with 20 strokes of a Dounce glass-on-glasshomogenizer and assayed for PDE activity, using 1 μM cAMP as substrate, as described previously. Data points represent the means of 2 to 10 separate determinations. […] Control activity was 1.66±0.14 pmol/min/10^6 cells (mean±S.E.M.; n=8) in the absence and 4.80±0.42 pmol/min/10^6 cells (mean±S.E.M.; n=10) in the presence of Ca^2+ and calmodulin.
RPMI 8392 cells were grown and treated with AS and NS ODN as described in the legend to FIG. 2. Cells were then collected at daily intervals and assayed for PDE activity as described in FIG. 10. Results represent the mean±the range of duplicate determinations. Control activities (pmol/min/10^6 cells) were 1.17, 1.34, and 1.50 in the absence, and 3.83, 4.34, and 3.79 in the presence of Ca^2+ and calmodulin at days 1, 2, and 3, respectively.

[2] = system: β-actin mRNA in RPMI 8392 cells; assay: Quantitative RT-PCR of β-actin mRNA (control gene) after ODN treatment; details: 10 or 30 μM ODN, 1 and 2 days
Source text: This is usually determined by looking at the reduction or disappearance of the protein product, either by selective measurement of an enzymatic activity of the protein, where applicable, or by immunoquantitation with specific antibodies by Western blot or ELISA techniques. Also, when PO or PS ODNs are used, which are capable of activating RNase H activity, it is expected that the mRNA of the targeted gene would be down regulated, most of the time, along with the protein product, and this can be readily tested by Northern blot analysis or PCR techniques. Using quantitative RT-PCR with primers specific for PDE1B1, we examined the RPMI 8392 cells for the presence of PDE1B1 mRNA. […] NS ODN, at these concentrations, had no effect on the expression of PDE1B1 mRNA. […]
HPBL were isolated from a normal human donor and placed in culture with (+PHA) or without (-PHA) phytohemagglutinin for 3 days. Quantitative RT-PCR was performed with 2 μg of HPBL RNA, using reagents and protocol from GIBCO/BRL. […]
(§1) Using quantitative RT-PCR, the effect of AS ODN and NS ODN on the level of mRNA for PDE1B1 in RPMI 8392 cells was examined. Quantitative RT-PCR was used to determine the relative amounts of β-actin and PDE1B1 mRNAs present in RPMI 8392 cells after 1 and 2 days in culture with 10 μM and 30 μM AS ODN (AS) and NS ODN (NS). […]

[3] = system: PDE1B1 mRNA in RPMI 8392 cells; assay: Quantitative RT-PCR of PDE1B1 mRNA after ODN treatment; details: 10 or 30 μM ODN
Source text: This is usually determined by looking at the reduction or disappearance of the protein product, either by selective measurement of an enzymatic activity of the protein, where applicable, or by immunoquantitation with specific antibodies by Western blot or ELISA techniques. Also, when PO or PS ODNs are used, which are capable of activating RNase H activity, it is expected that the mRNA of the targeted gene would be down regulated, most of the time, along with the protein product, and this can be readily tested by Northern blot analysis or PCR techniques. Using quantitative RT-PCR with primers specific for PDE1B1, we examined the RPMI 8392 cells for the presence of PDE1B1 mRNA. […] NS ODN, at these concentrations, had no effect on the expression of PDE1B1 mRNA. […] In this connection, the expression of β-actin is unaffected by cAMP and, therefore, β-actin mRNA levels were used as a control. Another gene that is often also used for control measurements for this purpose is that of glyceraldehyde-3-phosphate dehydrogenase (G3PDH).
HPBL were isolated from a normal human donor and placed in culture with (+PHA) or without (-PHA) phytohemagglutinin for 3 days. Quantitative RT-PCR was performed with 2 μg of HPBL RNA, using reagents and protocol from GIBCO/BRL. Degenerate 23 nt primers were synthesized based on reported sequences for PDE1B1. The sequence of the forward primer (Primer 1) corresponds to nt -34 to -12 and the sequence of the reverse primer (Primer 2) is complementary to nt 277 to 299 of the PDE1B1 cDNA. […]
as §1

Substance | PDE1 (CaM-stimulated PDE) activity ([1]; 10 or 30 μM ODN) | PDE1 activity ([1]; 10 or 30 μM ODN, time not specified) | Levels of β-actin mRNA [2] | Level of PDE1B1 mRNA expression ([3]; 1 and 2 days) | PDE1 activity ([1]; 30 μM ODN, 2 days) | Level of PDE1B1 mRNA expression ([3]; 1 day) | Level of PDE1B1 mRNA expression ([3]; 2 days)
5'-TACGTGAGGCACCTACGC-3' (phosphorothioate, further chemistry not given here) [NS ODN, control phosphorothioate nonsense ODN, same base composition as the AS ODN in random, scrambled order] | relatively unchanged | little or no effect | no effect; also recorded: unchanged | no effect | – | – | –
5'-GGACAGCTCCATGCTCAG-3' (phosphorothioate, further chemistry not given here) [AS ODN, 18 nt phosphorothioate antisense oligodeoxynucleotide targeted against the translation initiation region of PDE1B1] | undetectable; also recorded: disappear completely | – | unaltered; also recorded: unchanged | – | noticeably diminished | diminished | absent; also recorded: almost undetectable

From US5885834A, “Antisense oligodeoxynucleotide against phosphodiesterase” (priority 1997, dated 1999)
